Experimental findings from patent publication US10800791B2, “Triazole ACC inhibitors and uses thereof” (Gilead Apollo, LLC, priority 2015, dated 2020) are described below.

In brackets after ≈: the same amount, converted by molar mass. Like-named read-outs stand apart in the source and are kept apart here.

For one experiment, the system named is C. krusei. The experiment is described as follows: Antifungal Activity Assay (broth microtiter MIC), C. krusei. The class given is cell-based, Candida krusei. To be noted: Pichia kudriavzevii, ATCC6258, 48 h, ATCC 6258, 3 replicates, MIC recorded at 48 h, read-out: MIC, C. krusei ATCC 6258. The essentials: (§1)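 MICs were scored by eye at 48 h relative to the growth control. Plates followed CLSI M27-A3, with Candida suspensions in RPMI 1640+MOPS giving a final 2.5×10^3 CFU/mL; the colonies came from Sabouraud agar grown overnight at 35 °C.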

The test system of experiment [1] is Fusarium moniliforme (Fm). The experiment is described as follows: Growth inhibition assay of fungal pathogens, Fm. Type of experiment: cell-based. To be noted: Fusarium verticillioides, 48 h, Fusarium moniliforme; growth inhibition at 48 hours vs 2% DMSO control; read-out: Concentration at 90% Inhibition Fm. The procedure:
(§2) Compounds of the present invention were evaluated in a growth inhibition assay to determine the ability to control the growth of fungal pathogens, such as Botrtyis cinerea (Bc), Collectotrichum graminicola (Cg), Diplodia maydis (Dm), Fusarium moniliforme (Fm), Fusarium virguliforme (Fv), Phytophthora capsici (Pc), Rhizoctonia solani (Rs), and Septoria tritici (St).
(§3) Compounds to be tested were dissolved in DMSO at 2.5 mg/ml to produce compound stock solutions (“stocks”). Stocks were diluted with DMSO by a five-fold dilution in a 96-well stock plate, and two sets of final concentrations of 50, 10, and 2 ppm or 2, 0.4, and 0.08 ppm were obtained in vitro. A set of positive controls was also prepared, with various concentrations of Soraphen (2, 0.4, and 0.08 ppm), Metalaxyl (1.1, 0.22, and 0.04 ppm), and Metconazole (2, 0.4, and 0.08 ppm or 0.2, 0.04, and 0.008 ppm) after the five-fold dilutions. Negative controls on each plate included 2% DMSO, water, and a blank (media+2% DMSO).
(§4) Fungal spores were isolated from previously sub-cultured plates of Botrtyis cinerea (Bc), Collectotrichum graminicola (Cg), Diplodia maydis (Dm), Fusarium moniliforme (Fm), Fusarium virguliforme (Fv), Phytophthora capsici (Pc), and Septoria tritici (St). The isolated spores were diluted to individual concentrations with a 17% V8 liquid media. For Rhizoctonia solani (Rs) and Pythium irregulare, 1.5 mm mycelial plugs were used in place of spores and/4 Potato Dextrose Broth (PDB) was used for dilution. The spore concentrations and plug sizes were based on growth curves generated at 48 hours for each pathogen.
(§5) In a second 96-well plate, the spores or mycelial plugs, media, diluted compound solutions, and controls were combined. Once the compound was added, a true final concentration of compound in each well was measured by an OD600 reading, which adjusted for any compound precipitation that might have occurred in the well. Plate readings were repeated at both 24 and 48 hours. The blank negative control was used as a background subtraction. Additional visual ratings were performed at both 24 and 48 hours for checking on precipitation and confirming efficacy. Visual and OD600 ratings of the compounds at 48 hours were compared to the 2% DMSO negative control, and the percent of pathogen growth inhibition was determined based on those values.

The subject of the next experiment is Septoria tritici (St). The experiment is described as follows: Growth inhibition assay of fungal pathogens, St. Type of experiment: cell-based. To be noted: Zymoseptoria tritici, 48 h, Septoria tritici; growth inhibition at 48 hours vs 2% DMSO control; read-out: Concentration at 90% Inhibition St. The procedure:
as §2, §3, §4, §5

A further experiment concerns the target human (hACC2) (Homo sapiens, UniProt O00763). The experiment is described as follows: In vitro ACC inhibition assay (ADP-Glo), hACC2. Type of experiment: biochemical. As to conditions: 5 nM ACC2, 20 μM ATP, 20 μM acetyl-CoA. The procedure: The detailed procedure is as follows. […] 10 μL ADP glo reagent was added. […] 20 μL kinase detection reagent was added.

A further experiment deals with C. parapsilosis. The experiment is described as follows: Antifungal Activity Assay (broth microtiter MIC), C. parapsilosis. Type of experiment: cell-based, Candida parapsilosis. As to conditions: Lodderomyces parapsilosis, ATCC22019, 48 h, ATCC 22019, 3 replicates, MIC recorded at 48 h, read-out: MIC, C. parapsilosis ATCC 22019. A digest of the protocol: as §1
In experiment [2] the test system is Collectotrichum graminicola (Cg). The experiment is described as follows: Growth inhibition assay of fungal pathogens, Cg. To be noted: 48 h, Collectotrichum graminicola; growth inhibition at 48 hours vs 2% DMSO control; read-out: Concentration at 90% Inhibition Cg. Type of experiment: cell-based. The procedure: as §2, §3, §4, §5
In another experiment the test system is Diplodia maydis (Dm). The experiment is described as follows: Growth inhibition assay of fungal pathogens, Dm. To be noted: Stenocarpella maydis, 48 h, Diplodia maydis; growth inhibition at 48 hours vs 2% DMSO control; read-out: Concentration at 90% Inhibition Dm. The class given is cell-based. As to the method: as §2, §3, §4, §5
The test system of experiment [3] is Fusarium virguliforme (Fv). The experiment is described as follows: Growth inhibition assay of fungal pathogens, Fv. The class given is cell-based. As to conditions: 48 h, growth inhibition at 48 hours vs 2% DMSO control, read-out: Concentration at 90% Inhibition Fv. As to the method:
as §2, §3, §4, §5

A further experiment has as its system C. albicans. The experiment is described as follows: Antifungal Activity Assay (broth microtiter MIC), C. albicans. Type of experiment: cell-based, Candida albicans. As to conditions: Candida albicans, ATCC90028, 48 h, ATCC 90028, 3 replicates, MIC recorded at 48 h, read-out: MIC, C. albicans ATCC 90028. A digest of the protocol: as §1
Experiment [4] concerns Phytophthora capsici (Pc). The experiment is described as follows: Growth inhibition assay of fungal pathogens, Pc. The class given is cell-based. To be noted: 48 h, growth inhibition at 48 hours vs 2% DMSO control, read-out: Concentration at 90% Inhibition Pc. As to the method: as §2, §3, §4, §5
Another experiment relates to Botrtyis cinerea (Bc). The experiment is described as follows: Growth inhibition assay of fungal pathogens, Bc. Type of experiment: cell-based. As to conditions: 48 h, Botrtyis cinerea; growth inhibition at 48 hours vs 2% DMSO control; read-out: Concentration at 90% Inhibition Bc. As to the method:
as §2, §3, §4, §5

Another experiment relates to Rhizoctonia solani (Rs). The experiment is described as follows: Growth inhibition assay of fungal pathogens, Rs. The class given is cell-based. To be noted: 48 h, mycelial plugs, growth inhibition at 48 hours vs 2% DMSO control, read-out: Concentration at 90% Inhibition Rs.
For the next experiment, the target named is fungal (fACC2) (UniProt Q00955). As to conditions: read-out: fACC2 (in vitro ACC2 Inhibition Assay, IC50); Table 2b, additional results; ADP-Glo, 5 nM ACC2, 20 μM ATP, 20 μM acetyl-CoA.
Sequence of fungal (fACC2) (Q00955 whole entry): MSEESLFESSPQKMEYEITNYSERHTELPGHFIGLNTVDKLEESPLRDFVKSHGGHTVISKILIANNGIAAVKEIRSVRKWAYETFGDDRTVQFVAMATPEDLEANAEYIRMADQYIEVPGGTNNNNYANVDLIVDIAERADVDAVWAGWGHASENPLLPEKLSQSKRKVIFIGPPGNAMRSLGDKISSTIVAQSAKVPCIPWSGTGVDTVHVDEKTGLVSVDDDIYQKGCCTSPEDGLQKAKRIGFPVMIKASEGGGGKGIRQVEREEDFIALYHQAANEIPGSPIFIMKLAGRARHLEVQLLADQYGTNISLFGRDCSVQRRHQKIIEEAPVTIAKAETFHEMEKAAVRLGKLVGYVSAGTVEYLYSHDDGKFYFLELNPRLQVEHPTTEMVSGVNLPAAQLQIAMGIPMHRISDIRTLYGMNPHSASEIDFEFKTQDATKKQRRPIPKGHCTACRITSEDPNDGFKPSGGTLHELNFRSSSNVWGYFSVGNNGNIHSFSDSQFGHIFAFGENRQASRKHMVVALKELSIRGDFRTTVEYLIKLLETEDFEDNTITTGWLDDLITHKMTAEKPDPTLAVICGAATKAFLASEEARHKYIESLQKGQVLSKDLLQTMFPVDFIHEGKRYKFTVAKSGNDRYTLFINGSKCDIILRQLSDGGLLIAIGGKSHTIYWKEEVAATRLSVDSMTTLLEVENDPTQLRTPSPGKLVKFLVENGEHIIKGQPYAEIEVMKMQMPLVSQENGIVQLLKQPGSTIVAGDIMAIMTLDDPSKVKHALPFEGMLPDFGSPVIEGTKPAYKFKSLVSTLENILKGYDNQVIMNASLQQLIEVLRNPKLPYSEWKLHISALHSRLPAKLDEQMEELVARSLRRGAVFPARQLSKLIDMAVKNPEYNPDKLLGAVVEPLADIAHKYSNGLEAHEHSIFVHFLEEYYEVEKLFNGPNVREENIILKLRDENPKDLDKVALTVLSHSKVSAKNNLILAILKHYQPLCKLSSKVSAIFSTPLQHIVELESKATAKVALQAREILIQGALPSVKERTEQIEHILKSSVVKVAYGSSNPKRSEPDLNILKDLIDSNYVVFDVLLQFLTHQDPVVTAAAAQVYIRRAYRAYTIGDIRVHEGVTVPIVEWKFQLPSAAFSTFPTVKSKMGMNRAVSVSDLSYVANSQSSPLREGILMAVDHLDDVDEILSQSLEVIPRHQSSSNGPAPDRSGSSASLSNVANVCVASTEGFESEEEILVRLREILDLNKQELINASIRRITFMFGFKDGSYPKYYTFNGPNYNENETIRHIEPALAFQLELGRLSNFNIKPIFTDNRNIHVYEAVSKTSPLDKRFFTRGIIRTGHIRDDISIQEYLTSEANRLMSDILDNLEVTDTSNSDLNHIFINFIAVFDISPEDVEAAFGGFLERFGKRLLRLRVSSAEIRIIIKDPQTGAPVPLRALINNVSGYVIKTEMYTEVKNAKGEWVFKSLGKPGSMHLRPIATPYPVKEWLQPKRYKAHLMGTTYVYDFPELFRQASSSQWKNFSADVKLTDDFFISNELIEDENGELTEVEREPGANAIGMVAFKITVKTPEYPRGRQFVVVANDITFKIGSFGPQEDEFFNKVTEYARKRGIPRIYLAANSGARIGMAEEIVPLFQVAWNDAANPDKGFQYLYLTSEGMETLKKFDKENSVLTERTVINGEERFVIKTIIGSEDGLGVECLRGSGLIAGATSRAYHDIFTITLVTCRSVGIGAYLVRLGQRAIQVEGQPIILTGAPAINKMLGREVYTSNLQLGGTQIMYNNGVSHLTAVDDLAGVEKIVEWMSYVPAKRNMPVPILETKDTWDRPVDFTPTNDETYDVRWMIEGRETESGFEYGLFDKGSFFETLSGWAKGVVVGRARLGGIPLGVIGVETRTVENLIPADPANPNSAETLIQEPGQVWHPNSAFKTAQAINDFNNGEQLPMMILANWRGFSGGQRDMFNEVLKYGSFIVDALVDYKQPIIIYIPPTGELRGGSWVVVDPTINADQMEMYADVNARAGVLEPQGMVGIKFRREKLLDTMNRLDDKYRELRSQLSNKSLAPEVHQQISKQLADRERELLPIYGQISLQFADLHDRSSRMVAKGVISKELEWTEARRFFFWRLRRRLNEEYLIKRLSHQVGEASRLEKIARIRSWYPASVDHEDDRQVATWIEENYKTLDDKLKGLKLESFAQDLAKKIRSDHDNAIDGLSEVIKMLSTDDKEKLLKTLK

Sequence of human (hACC2) (O00763 whole entry): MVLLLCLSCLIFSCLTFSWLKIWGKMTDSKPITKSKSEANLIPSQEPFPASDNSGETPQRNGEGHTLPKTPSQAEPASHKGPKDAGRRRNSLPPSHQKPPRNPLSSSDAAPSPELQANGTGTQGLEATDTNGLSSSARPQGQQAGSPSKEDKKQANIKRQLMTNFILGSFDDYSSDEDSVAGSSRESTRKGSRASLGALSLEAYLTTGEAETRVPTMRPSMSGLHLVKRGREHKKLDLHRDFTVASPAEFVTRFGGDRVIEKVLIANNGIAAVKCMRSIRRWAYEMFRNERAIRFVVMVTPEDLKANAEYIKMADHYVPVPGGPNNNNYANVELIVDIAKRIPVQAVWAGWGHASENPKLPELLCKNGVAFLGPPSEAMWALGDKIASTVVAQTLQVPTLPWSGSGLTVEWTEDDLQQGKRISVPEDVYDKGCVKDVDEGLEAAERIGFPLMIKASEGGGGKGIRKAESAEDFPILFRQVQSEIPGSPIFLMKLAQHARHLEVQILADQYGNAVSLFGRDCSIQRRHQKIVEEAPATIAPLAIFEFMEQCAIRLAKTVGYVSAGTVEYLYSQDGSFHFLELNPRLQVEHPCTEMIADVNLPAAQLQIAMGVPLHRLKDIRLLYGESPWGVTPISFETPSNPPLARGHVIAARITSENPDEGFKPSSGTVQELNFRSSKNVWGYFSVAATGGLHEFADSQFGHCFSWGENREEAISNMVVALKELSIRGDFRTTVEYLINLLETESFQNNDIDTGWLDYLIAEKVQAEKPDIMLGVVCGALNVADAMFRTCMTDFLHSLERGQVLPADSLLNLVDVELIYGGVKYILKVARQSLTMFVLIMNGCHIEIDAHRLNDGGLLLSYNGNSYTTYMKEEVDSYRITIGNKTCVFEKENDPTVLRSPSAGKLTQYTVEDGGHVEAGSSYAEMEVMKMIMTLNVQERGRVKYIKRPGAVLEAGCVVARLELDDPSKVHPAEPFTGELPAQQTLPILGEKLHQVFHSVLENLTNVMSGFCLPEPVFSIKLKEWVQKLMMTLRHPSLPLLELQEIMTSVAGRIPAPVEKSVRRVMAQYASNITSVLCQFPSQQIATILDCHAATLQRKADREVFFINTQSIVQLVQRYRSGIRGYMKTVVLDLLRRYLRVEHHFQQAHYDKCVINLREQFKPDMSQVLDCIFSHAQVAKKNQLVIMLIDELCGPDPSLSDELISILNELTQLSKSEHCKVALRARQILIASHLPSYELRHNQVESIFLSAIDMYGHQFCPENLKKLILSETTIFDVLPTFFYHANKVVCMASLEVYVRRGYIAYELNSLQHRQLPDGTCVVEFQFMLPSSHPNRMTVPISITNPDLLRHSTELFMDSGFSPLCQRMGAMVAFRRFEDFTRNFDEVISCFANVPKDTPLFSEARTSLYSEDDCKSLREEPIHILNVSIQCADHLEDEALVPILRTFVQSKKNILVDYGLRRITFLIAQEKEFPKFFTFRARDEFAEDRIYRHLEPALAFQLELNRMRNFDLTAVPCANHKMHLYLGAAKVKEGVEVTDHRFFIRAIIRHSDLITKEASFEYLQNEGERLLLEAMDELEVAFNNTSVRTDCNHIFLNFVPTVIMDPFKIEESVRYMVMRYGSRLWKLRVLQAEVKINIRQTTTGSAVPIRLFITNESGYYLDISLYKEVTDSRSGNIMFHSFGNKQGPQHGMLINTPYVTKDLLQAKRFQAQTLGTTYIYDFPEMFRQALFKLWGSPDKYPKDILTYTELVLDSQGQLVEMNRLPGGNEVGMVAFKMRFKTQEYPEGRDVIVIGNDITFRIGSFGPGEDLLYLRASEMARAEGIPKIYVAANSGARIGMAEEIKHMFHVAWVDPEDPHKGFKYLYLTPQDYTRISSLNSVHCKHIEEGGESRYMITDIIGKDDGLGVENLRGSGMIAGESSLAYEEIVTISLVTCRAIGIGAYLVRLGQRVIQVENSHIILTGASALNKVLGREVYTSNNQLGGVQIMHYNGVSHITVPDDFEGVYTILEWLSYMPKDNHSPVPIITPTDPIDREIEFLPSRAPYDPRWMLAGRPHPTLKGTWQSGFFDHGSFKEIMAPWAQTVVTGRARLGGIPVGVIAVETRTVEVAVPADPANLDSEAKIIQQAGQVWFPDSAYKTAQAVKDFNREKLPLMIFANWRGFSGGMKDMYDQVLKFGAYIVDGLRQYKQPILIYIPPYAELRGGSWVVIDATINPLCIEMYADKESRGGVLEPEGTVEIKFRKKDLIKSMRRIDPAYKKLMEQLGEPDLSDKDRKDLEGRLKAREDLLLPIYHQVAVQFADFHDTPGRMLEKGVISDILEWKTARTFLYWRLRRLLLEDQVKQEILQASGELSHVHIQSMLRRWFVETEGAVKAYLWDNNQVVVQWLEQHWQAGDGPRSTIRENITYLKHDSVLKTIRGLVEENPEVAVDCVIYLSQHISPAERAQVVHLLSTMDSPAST

On to `COc1ccc(F)cc1[C@H](Cn1c(=O)n(C(C)(C)C(=O)O)c(=O)c2c(C)c(-n3nccn3)sc21)OC1CCC(=O)CC1` [Compound I-30, (R)-2-(1-(2-(5-fluoro-2-methoxyphenyl)-2-((4-oxocyclo-hexyl)oxy)ethyl)-5-methyl-2,4-dioxo-6-(2H-1,2,3-triazol-2-yl)-1,4-dihydrothieno[2,3-d]pyrimidin-3(2H)-yl)-2-methylpropanoic acid], for which the MIC with C. krusei (Table 3a) is 2.1 to 4 µg/mL (≈ 3.5 to 6.67 µM); in the experiment on C. krusei (Table 3b (additional results)) it was 1.01 to 2 µg/mL (≈ 1.68 to 3.34 µM); in the experiment on C. parapsilosis (Table 3a), 2.1 to 4 µg/mL (≈ 3.5 to 6.67 µM); in the experiment with C. parapsilosis (Table 3b (additional results)) it was 2.01 to 4 µg/mL (≈ 3.35 to 6.67 µM); in the experiment on C. albicans (Table 3a) it was 2.1 to 4 µg/mL (≈ 3.5 to 6.67 µM); in the experiment with C. albicans (Table 3b (additional results)), 1.01 to 2 µg/mL (≈ 1.68 to 3.34 µM). The IC90 was 2 µg/mL (≈ 3.34 µM) in experiment [1]; more than 50 µg/mL with Septoria tritici (St); more than 50 µg/mL in [2]; more than 50 µg/mL in the experiment on Diplodia maydis (Dm); more than 50 µg/mL in [3]; more than 50 µg/mL in [4]. Besides, the IC90 with Botrtyis cinerea (Bc) and in the experiment with Rhizoctonia solani (Rs) was 10 µg/mL (≈ 16.7 µM) in each case. The IC50 against human (hACC2) (Table 2a) is 1 to 5 nM; against human (hACC2) (Table 2b, additional results), 1 to 5 nM.
As for `COc1ccccc1[C@@H](O)Cn1c(=O)n(C(C)(C)C(=O)N2CCCC2)c(=O)c2c(C)c(-n3nccn3)sc21` [Compound I-189], the MIC in the experiment with C. krusei (Table 3b (additional results)), in the experiment with C. parapsilosis (Table 3b (additional results)) and in the experiment on C. albicans (Table 3b (additional results)) was 1.01 to 2 µg/mL (≈ 1.88 to 3.71 µM) each time. For the same compound, the IC90 in [1] is 10 µg/mL (≈ 18.6 µM); in the experiment with Septoria tritici (St), more than 50 µg/mL; in experiment [2], more than 50 µg/mL; in the experiment on Diplodia maydis (Dm) it was more than 50 µg/mL; in [3], 10 µg/mL (≈ 18.6 µM); in [4] it was more than 50 µg/mL. The IC90 in the experiment with Botrtyis cinerea (Bc) was 10 µg/mL (≈ 18.6 µM); in the experiment with Rhizoctonia solani (Rs), 0.08 µg/mL (≈ 0.149 µM). The same compound returned an IC50 on human (hACC2) (Table 2b, additional results) of 10 to 40 nM.
Regarding `COc1ccc(F)cc1[C@@H](O)Cn1c(=O)n([C@@H](C)C(=O)N2CC=CC2)c(=O)c2c(C)c(-n3nccn3)sc21` [Compound I-193], the MIC in the experiment with C. krusei (Table 3b (additional results)), in the experiment with C. parapsilosis (Table 3b (additional results)) and with C. albicans (Table 3b (additional results)) was 1.01 to 2 µg/mL (≈ 1.87 to 3.7 µM) each time. Besides, the IC90 in [1] was 2 µg/mL (≈ 3.7 µM); in the experiment with Septoria tritici (St), more than 50 µg/mL; in [2], 10 µg/mL (≈ 18.5 µM); in the experiment with Diplodia maydis (Dm), more than 50 µg/mL; in experiment [3], 2 µg/mL (≈ 3.7 µM); in experiment [4], more than 50 µg/mL. For the same compound, the figures for the IC90 in the experiment with Botrtyis cinerea (Bc) and in the experiment on Rhizoctonia solani (Rs) were 10 µg/mL (≈ 18.5 µM) and 2 µg/mL (≈ 3.7 µM), respectively. Moreover, the IC50 against human (hACC2) (Table 2b, additional results) fell in the range of 5 to 10 nM.
Take `COc1ccc(F)cc1[C@@H](Cn1c(=O)n(C(C)(C)C(=O)NC(C)C)c(=O)c2c(C)c(-n3nccn3)sc21)OC(C)=O` [Compound I-259]: the IC90 is 0.08 µg/mL (≈ 0.136 µM) in experiment [1]; more than 50 µg/mL in the experiment on Septoria tritici (St); 0.4 µg/mL (≈ 0.682 µM) in experiment [2]; 0.4 µg/mL (≈ 0.682 µM) in the experiment on Diplodia maydis (Dm); 0.08 µg/mL (≈ 0.136 µM) in [3]; more than 50 µg/mL in [4]. Besides, the IC90 in the experiment on Botrtyis cinerea (Bc) came to 0.4 µg/mL (≈ 0.682 µM); in the experiment on Rhizoctonia solani (Rs) it was 0.08 µg/mL (≈ 0.136 µM). The IC50 fell in the range of 5 to 10 nM against human (hACC2) (Table 2b, additional results) and 1 to 5 nM at fungal (fACC2).
